From patent publication US8299070B2, “Indole compounds and pharmaceutical use thereof” (Japan Tobacco Inc., priority 2009, dated 2012)

target: T1, hITK enzyme (FLAG-tagged full-length hITK) (Homo sapiens, UniProt Q08881); assay: ITK inhibitory activity (HTRF kinase assay, biotinylated GST-SLP76 substrate); assay type: biochemical; conditions: ATP concentration of the substrate solution 6 μmol/L (Examples 380 and 381)
T1 construct: strongly expressing FLAG-tagged full-length hITK in Sf9 cells; FLAG; made in house; host or cells: Sf9 insect cells (ITK); Escherichia coli (GST-SLP76 substrate)
T1 sequence (Q08881 1-620): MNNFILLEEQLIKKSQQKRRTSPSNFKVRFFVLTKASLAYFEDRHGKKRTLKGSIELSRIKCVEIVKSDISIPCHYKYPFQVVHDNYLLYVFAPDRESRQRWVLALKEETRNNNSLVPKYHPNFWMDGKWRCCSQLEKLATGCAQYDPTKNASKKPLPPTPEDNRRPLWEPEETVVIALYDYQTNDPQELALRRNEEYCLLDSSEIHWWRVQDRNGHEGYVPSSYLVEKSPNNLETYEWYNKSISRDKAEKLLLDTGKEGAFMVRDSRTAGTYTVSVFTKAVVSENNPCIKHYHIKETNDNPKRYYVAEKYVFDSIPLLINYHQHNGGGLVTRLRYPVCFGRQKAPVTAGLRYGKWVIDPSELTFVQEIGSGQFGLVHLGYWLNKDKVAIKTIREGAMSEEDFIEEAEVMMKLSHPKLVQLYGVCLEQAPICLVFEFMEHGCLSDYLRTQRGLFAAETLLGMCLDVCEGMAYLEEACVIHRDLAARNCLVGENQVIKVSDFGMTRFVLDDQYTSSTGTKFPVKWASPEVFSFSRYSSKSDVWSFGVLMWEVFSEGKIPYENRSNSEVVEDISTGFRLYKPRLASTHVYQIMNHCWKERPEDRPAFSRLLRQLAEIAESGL
Outline: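 Sf9-expressed hITK (50 ng/mL enzyme solution) reacted 10 min at RT in MOPS pH 7.0, 10 mmol/L MgCl2, 1 mmol/L DTT with E. coli SLP76 aa95–175 substrate; substrate solution held 100 µmol/L ATP (6 µmol/L for selected compounds). HTRF 665/620 ratio, blank-corrected; IC50 interpolated between two concentrations bracketing 50% inhibition.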

`C[C@H](C(=O)N(C)c1ccc2cc(-c3n[nH]c4c3CCC(C)(C)C4)[nH]c2c1)N1CCOCC1` [Example 381] gave an IC50 of 2 nM.

same assay, conditions: IC50 calculated from the 2 test compound concentrations sandwiching 50% ITK inhibitory rate

`CN(C(=O)C1CCOC1(C)C)c1ccc2cc(-c3n[nH]c4c3CCC(C)(C)C4)[nH]c2c1` (stereo not shown) [Example 201] and `CN(C(=O)[C@H]1CCCN1C)c1ccc2cc(-c3n[nH]c4c3CCC(C)(C)C4)[nH]c2c1` [Example 149] are the same in IC50: 10 nM for the first, 10 nM for the second.

Going from `C[C@@H]1CN(CC(=O)N(C)c2ccc3cc(-c4n[nH]c5c4CCC(C)(C)C5)[nH]c3c2)C[C@H](C)O1` [Example 119] to `CN(C(=O)CN1CCC(C)(C)C1=O)c1ccc2cc(-c3n[nH]c4c3CCC(C)(C)C4)[nH]c2c1` [Example 183], the IC50 falls from 3 nM to 1 nM (3-fold).

Compared with `CN(C)CCCN(C(=O)C1CCOCC1)c1ccc2cc(-c3n[nH]c4c3CCC(C)(C)C4)[nH]c2c1` [Example 223], `CN(C)CCCN(C(=O)C1CCOC1)c1ccc2cc(-c3n[nH]c4c3CCC(C)(C)C4)[nH]c2c1` (stereo not shown) [Example 225] is 2.5-fold lower in IC50: 5 nM for the first, 2 nM for the second.

Compared with `CC1(C)CCc2c(-c3cc4ccc(N(CCO)C(=O)CC5CCOCC5)cc4[nH]3)n[nH]c2C1` [Example 249], `COCC(=O)N(CCO)c1ccc2cc(-c3n[nH]c4c3CCC(C)(C)C4)[nH]c2c1` [Example 213] is lower in IC50: 7 nM for the first, < 3 nM for the second. The second is the more potent here.

Compared with `CN(C(=O)CCO)c1ccc2cc(-c3n[nH]c4c3CCC(C)(C)C4)[nH]c2c1` [Example 63], `CN(C(N)=O)c1ccc2cc(-c3n[nH]c4c3CCC(C)(C)C4)[nH]c2c1` [Example 54] is 3-fold higher in IC50: 6 nM for the first, 18 nM for the second.

`CN(CC(=O)N(C)c1ccc2cc(-c3n[nH]c4c3CCC(C)(C)C4)[nH]c2c1)C(=O)C1CC1` [Example 200] and `CN(c1ccc2cc(-c3n[nH]c4c3CCC(C)(C)C4)[nH]c2c1)C(=O)[C@H]1CC[C@@H](O)CC1` [Example 84] cannot be ordered by IC50: 1 nM for the first, < 3 nM for the second.

First: COCC1(C)CCc2c(-c3cc4ccc(N(C)C(=O)[C@H]5CC[C@@H](OC)CC5)cc4[nH]3)n[nH]c2C1 (stereo partly shown) [Example 348]
Second: CO[C@H]1CC[C@@H](C(=O)N(C)c2ccc3cc(-c4n[nH]c5c4CCC(C)(CO)C5)[nH]c3c2)CC1 (stereo partly shown) [Example 346]
The IC50 of the first is 1.6-fold higher: 8 nM for the first, 5 nM for the second. The second is the more potent here.

Compared with `COC1CCc2[nH]nc(-c3cc4ccc(N(C)C(=O)c5ccccc5)cc4[nH]3)c2C1` (stereo not shown) [Example 370], `COCC(=O)N(C)c1ccc2cc(-c3n[nH]c4c3CC(O)CC4)[nH]c2c1` (stereo not shown) [Example 366] is 2.5-fold lower in IC50: 204 nM for the first, 82 nM for the second. The second is the more potent here.

First: CN(C(=O)CN1CCCS1(=O)=O)c1ccc2cc(-c3n[nH]c4c3CCC(C)(C)C4)[nH]c2c1 [Example 138]
Second: CN(C(=O)CN1CCOCC1=O)c1ccc2cc(-c3n[nH]c4c3CCC(C)(C)C4)[nH]c2c1 [Example 6, N-[2-(6,6-dimethyl-4,5,6,7-tetrahydro-1H-indazol-3-yl)-1H-indol-6-yl]-N-methyl-2-(3-oxomorpholin-4-yl)acetamide]
The IC50 of the first is 1.5-fold higher: 3 nM for the first, 2 nM for the second.

Going from `CN(C(=O)C1CCCC1)c1ccc2cc(-c3n[nH]c4c3CCC(C)(CO)C4)[nH]c2c1` (stereo not shown) [Example 349] to `CN(C(=O)C1CCOCC1)c1ccc2cc(-c3n[nH]c4c3CCC(C)(C)C4)[nH]c2c1` [Example 60], the IC50 rises from 2 nM to 5 nM (2.5-fold).

`CC(=O)N(CCO)c1ccc2cc(-c3n[nH]c4c3CCC(C)(C)C4)[nH]c2c1` [Example 214] and `CCN(C(=O)CN(C)C(C)=O)c1ccc2cc(-c3n[nH]c4c3CCC(C)(C)C4)[nH]c2c1` [Example 291] cannot be ordered by IC50: < 3 nM for the first, 1 nM for the second.

`COCCNC(=O)c1ccc2[nH]c(-c3n[nH]c4c3CCC(C)(C)C4)cc2c1` [Example 310] and `COCCN(C)C(=O)c1ccc2[nH]c(-c3n[nH]c4c3CCC(C)(C)C4)cc2c1` [Example 313] are the same in IC50: 47 nM for the first, 47 nM for the second.

`CC1(C)CCc2c(-c3cc4cc(C(=O)N5CCC(O)CC5)ccc4[nH]3)n[nH]c2C1` [Example 302] and `CC1(C)CCc2c(-c3cc4cc(C(=O)N5CCc6[nH]cnc6C5)ccc4[nH]3)n[nH]c2C1` [Example 334] are within 1.5-fold of each other in IC50: 39 nM for the first, 31 nM for the second.

First: COCCN(C(=O)CN1C(=O)COC[C@@H]1C)c1ccc2cc(-c3n[nH]c4c3CCC(C)(C)C4)[nH]c2c1 [Example 272]
Second: COCCN(C(=O)CN1CCCCC1=O)c1ccc2cc(-c3n[nH]c4c3CCC(C)(C)C4)[nH]c2c1 [Example 287]
The IC50 of the first is 3-fold higher: 3 nM for the first, 1 nM for the second. The second is the more potent here.

Compared with `CN(C(=O)CN1CC(C)(C)OCC1=O)c1ccc2cc(-c3n[nH]c4c3CCC(C)(C)C4)[nH]c2c1` [Example 184], `CN(C(=O)CN1CC(C)(C)CCC1=O)c1ccc2cc(-c3n[nH]c4c3CCC(C)(C)C4)[nH]c2c1` [Example 175] is 2-fold higher in IC50: 1 nM for the first, 2 nM for the second.

`COCC(NC(=O)c1ccc2cc(-c3n[nH]c4c3CCC(C)(C)C4)[nH]c2c1)C(C)C` (stereo not shown) [Example 24] and `CC(C)CNC(=O)c1ccc2cc(-c3n[nH]c4c3CCC(C)(C)C4)[nH]c2c1` [Example 12] are within 1.5-fold of each other in IC50: 25 nM for the first, 33 nM for the second.

Compared with `CC(C(=O)N(C)c1ccc2cc(-c3n[nH]c4c3CCC(C)(C)C4)[nH]c2c1)C1CCOCC1` (stereo not shown) [Example 98], `CCN(C(=O)C(C)C1CCOCC1)c1ccc2cc(-c3n[nH]c4c3CCC(C)(C)C4)[nH]c2c1` (stereo not shown) [Example 263] is 2.3-fold higher in IC50: 3 nM for the first, 7 nM for the second.

Going from `CC(C(=O)N(C)c1ccc2cc(-c3n[nH]c4c3CCC(C)(C)C4)[nH]c2c1)N(CCO)CC(=O)O` (stereo not shown) [Example 379] to `CC(CO)C(=O)N(C)c1ccc2cc(-c3n[nH]c4c3CCC(C)(C)C4)[nH]c2c1` (stereo not shown) [Example 61], the IC50 rises from 4 nM to 6 nM (1.5-fold). The first is the more potent here.

First: CC1(C)CCc2c(-c3cc4ccc(N5CCC(CO)C5=O)cc4[nH]3)n[nH]c2C1 (stereo not shown) [Example 228]
Second: CC1(C)CCc2c(-c3cc4ccc(N5CCC(C6CCCCC6)C5=O)cc4[nH]3)n[nH]c2C1 (stereo not shown) [Example 250]
The IC50 of the first is 3.5-fold lower: 40 nM for the first, 139 nM for the second. The first is the more potent here.

`COC1CCC(C(=O)N(C)c2ccc3cc(-c4n[nH]c5c4CCC(C)(C)C5)[nH]c3c2)CC1` (stereo not shown) [Example 74] and `CO[C@H]1CC[C@@H](C(=O)N(CCO)c2ccc3cc(-c4n[nH]c5c4CCC(C)(C)C5)[nH]c3c2)CC1` [Example 240] are within 1.5-fold of each other in IC50: 4 nM for the first, 3 nM for the second.

First: CN(C(=O)C(O)COC1CCCC1)c1ccc2cc(-c3n[nH]c4c3CCC(C)(C)C4)[nH]c2c1 (stereo not shown) [Example 131]
Second: CN(C(=O)C(O)C1CCCOC1)c1ccc2cc(-c3n[nH]c4c3CCC(C)(C)C4)[nH]c2c1 (stereo not shown) [Example 96]
The IC50 of the first is 8.3-fold higher: 25 nM for the first, 3 nM for the second.

First: CC(CO)N(C)C(=O)c1ccc2cc(-c3n[nH]c4c3CCC(C)(C)C4)[nH]c2c1 (stereo not shown) [Example 7, 2-(6,6-dimethyl-4,5,6,7-tetrahydro-1H-indazol-3-yl)-1H-indole-6-carboxylic acid (2-hydroxy-1-methylethyl)methylamide]
Second: CC(O)C(=O)N(C)c1ccc2cc(-c3n[nH]c4c3CCC(C)(C)C4)[nH]c2c1 (stereo not shown) [Example 46]
The IC50 of the first is 7.8-fold higher: 39 nM for the first, 5 nM for the second.

First: COC(=O)CN(C)C(=O)c1ccc2[nH]c(-c3n[nH]c4c3CCC(C)(C)C4)cc2c1 [Example 311]
Second: CN(C(=O)CO)c1ccc2[nH]c(-c3n[nH]c4c3CCC(C)(C)C4)cc2c1 [Example 343]
The IC50 of the first is 4.2-fold lower: 32 nM for the first, 135 nM for the second. The first is the more potent here.

Compared with `CN(C(=O)CC1CCCOC1)c1ccc2cc(-c3n[nH]c4c3CCC(C)(C)C4)[nH]c2c1` (stereo not shown) [Example 103], `CN(C(=O)CCN1CCCC1=O)c1ccc2cc(-c3n[nH]c4c3CCC(C)(C)C4)[nH]c2c1` [Example 144] is 3-fold higher in IC50: 3 nM for the first, 9 nM for the second. The first is the more potent here.

First: CC(C(=O)N(C)c1ccc2cc(-c3n[nH]c4c3CCC(C)(C)C4)[nH]c2c1)N1CCCC1=O (stereo not shown) [Example 134]
Second: CC(C(=O)N(C)c1ccc2cc(-c3n[nH]c4c3CCC(C)(C)C4)[nH]c2c1)N1CCCCC1 (stereo not shown) [Example 122]
The IC50 of the first is 2.5-fold lower: 8 nM for the first, 20 nM for the second.

`CN(C)CCN(C(=O)C1CCOC1)c1ccc2cc(-c3n[nH]c4c3CCC(C)(C)C4)[nH]c2c1` (stereo not shown) [Example 217] and `CN(C)CCCN(C(=O)C1CCCO1)c1ccc2cc(-c3n[nH]c4c3CCC(C)(C)C4)[nH]c2c1` (stereo not shown) [Example 224] cannot be ordered by IC50: < 3 nM for the first, 1 nM for the second.

Going from `CN1CCN(CC(=O)N(C)c2ccc3cc(-c4n[nH]c5c4CCC(C)(C)C5)[nH]c3c2)C1=O` [Example 186] to `CC1COCC(=O)N1C(C)C(=O)N(C)c1ccc2cc(-c3n[nH]c4c3CCC(C)(C)C4)[nH]c2c1` (stereo not shown) [Example 152], the IC50 rises from 1 nM to 14 nM (14-fold).

First: CCC(=O)N(C)CC(=O)N(CC)c1ccc2cc(-c3n[nH]c4c3CCC(C)(C)C4)[nH]c2c1 [Example 292]
Second: CCN(C(=O)CC(C)(C)O)c1ccc2cc(-c3n[nH]c4c3CCC(C)(C)C4)[nH]c2c1 [Example 290]
The IC50 of the first is 4-fold lower: 2 nM for the first, 8 nM for the second.

Compared with `CCC(=O)Nc1ccc2[nH]c(-c3n[nH]c4c3CCC(C)(C)C4)cc2c1` [Example 345], `CC1(C)CCc2c(-c3cc4cc(C(=O)Nc5ccccc5)ccc4[nH]3)n[nH]c2C1` [Example 293] is 3-fold higher in IC50: 88 nM for the first, 263 nM for the second.

`CO[C@H]1CN(C(=O)c2ccc3[nH]c(-c4n[nH]c5c4CCC(C)(C)C5)cc3c2)C[C@H]1OC` [Example 338] gave an IC50 of 33 nM.

same assay, conditions: at 30 nM test compound; read-out: ITK inhibitory rate (%)

Work on `CC(C)C(=O)N(C)[C@@H](C)C(=O)N(C)c1ccc2cc(-c3n[nH]c4c3CCC(C)(C)C4)[nH]c2c1` [Example 204] yielded an inhibition at 0.03 µM of 49.2%.
